Measured values: publication PMC4269550, “Lead Optimization of a Pyrazole Sulfonamide Series of Trypanosoma bruceiN-Myristoyltransferase Inhibitors: Identification and Evaluation of CNS Penetrant Compounds as Potential Treatments for Stage 2 Human African Trypanosomiasis” (Journal of Medicinal Chemistry, 2014)
pEC50: −log10 of the molar value. Several values for one entry are separate records, joined by “and”; a condition that tells them apart may be missing. Equal entries are not always repeated.

Experiments:
T. b. brucei S427 = assay: Stage 1 HAT mouse efficacy model, T. b. brucei S427; assay type: in vivo; conditions: b.i.d. po, mouse
Mouse pharmacokinetics = assay type: in vivo; conditions: female, NMRI, whole blood, mouse
Protocol: Test compound was dosed as a bolus solution intravenously at 3 mg free base/kg (dose volume, 5 mL/kg; dose vehicle, saline or 5% DMSO; 40% PEG400; 55% saline) to female NMRI mice (n = 3) or dosed orally by gavage as a solution at 10 and/or 50 mg free base/kg (dose volume, 5 mL/kg; dose vehicle, 5% DMSO; 95% distilled water or 5% DMSO; 40% PEG400; 55% distilled water) to female NMRI mice (n = 3/dose level). Female NMRI mice were chosen as these represent the sex and strain used for the stage 1 and stage 2 HAT efficacy models. Blood samples were taken from each mouse at 2 (IV only), 5 (IV only), 15, and 30 min, 1, 2, 4, 6, 8, and 24 (po only) hours postdose and mixed with two volumes of distilled water. After suitable sample preparation, the concentration of test compound in blood was determined by UPLC-MS/MS using a Quattro Premier XE (Waters, USA). Pharmacokinetic parameters were derived from the mean blood concentration time curve using PKsolutions software v 2.0 (Summit Research Services, USA).

[1] = test system: T. b. rhodesiense STIB900; assay: Stage 1 HAT mouse efficacy model, T. b. rhodesiense STIB900; assay type: in vivo; conditions: b.i.d. po for 4 days
[2] = Intrinsic clearance (Cli), mouse liver microsomes; assay type: in vitro ADME
P-glycoprotein = assay: Rat brain penetration study +/- GF120918; conditions: in vivo
[3] = Rat hepatic portal vein study; assay type: in vivo; conditions: male Sprague–Dawley rat, 3 mg/kg orally
Protocol: aIC50 values are shown as mean values of two or more determinations. bCompounds with Hill slopes […]
Rat hepatic portal vein study protocol.
10mL/kg; Dose vehicle: 5% DMSO; 40% PEG400; 55% distilled water) to male Sprague-Dawley rats (n=7). A single rat was placed under terminal anaesthesia with isofluorane at 15 and 30 minutes, 1, 2, 4, 6 and 8 hours post-dose and a blood sample taken from the hepatic portal vein and the heart, each mixed with two volumes of distilled water. After suitable sample preparation, the concentration of compound 33 in all blood samples was determined by UPLC/MS/MS using a Quattro Premier XE (Waters, USA). The hepatic portal vein and cardiac blood concentration time profile is presented in Figure S2. Pharmacokinetic parameters were derived from the blood concentration time profiles using PKsolutions software v 2.0 (Summit Research Services, USA).

[4] = In vitro metabolite identification with mouse microsomes; assay type: in vitro ADME
[5] = test system: T. b. brucei, BSF427, VSG118; assay: Cell viability assay, trypanosome; assay type: cell-based
T. b. brucei GVR35 [6] = assay: Acute mouse model of T. b. brucei GVR35; assay type: in vivo
[7] = Maximum tolerated dose in mice; conditions: mouse, in vivo, po
T. b. brucei GVR35 [8] = assay type: in vivo
Description: NMRI mice used in the experiment were purchased from Harlan, UK. Mice were maintained under standard temperature/lighting conditions and given food and water ad libitum. The trypanosomes used in this study were of the cloned stabilate T. b. brucei GVR35, originally derived from trypanosomes isolated from a wildebeest in the Serengeti in 1966.[31] By 13 days postinfection, parasites entered the CNS.[32] If treatment is delayed until 21 days after infection, successful cure is therefore dependent on the ability of the compound to penetrate through the blood–brain barrier.[33] This model is widely used to evaluate the efficacy of new compounds for treatment against stage 2 HAT.[34]
Cryopreserved T. b. brucei GVR35 trypomastigotes were diluted to ∼5 × 10^4 cells/mL in 20 mM Hanks Balanced Salt Solution with glucose, and 0.2 mL of that dilution was used for infection (∼1 × 10^4 cells/mL per animal). All animals in the groups were intraperitoneally infected (ip) on day 0. After infection, parasitaemia was monitored by examination of tail blood smears. On day 21, post infection animals were randomly allocated to five mice per group. Infected animals were dosed with one of the following: diaminazene diaceturate (ip), 40 mg/kg once only as a HAT stage 1 control (early stage tyrypanocide to clear the parasites in the systemic circulation and in tissues other than CNS); Melasoprol (ip), 10 mg/kg once daily for 5 days as a positive control for HAT stage 2; […]. One group of five mice was an untreated control group. The dose solutions were prepared daily, using 5% DMSO:40% PEG400:55% Milli-Q water for compound (i.e., 40) and 10% DMSO:90% peanut oil for control drugs. To measure the response to treatment, parasitaemia was monitored twice per week until day 50. After day 50, the mice were checked only once per week until day 180 post treatment. Mice surviving to the end of experiment and blood smear aparasitaemic were considered cured.

[9] = Dose calculations for in vivo efficacy studies (brain concentration, brain free fraction)
Protocol: isofluorane. A blood sample was taken by cardiac puncture into two volumes of distilled water and the brain removed. After suitable sample preparation, the concentration of 1 in blood and brain was determined by UPLC/MS/MS using a Quattro Premier XE (Waters, USA). For each rat, the concentration in brain (ng/g) was divided by the concentration in blood (ng/mL) to give a brain:blood (B:B) ratio. The mean value obtained was quoted. A higher B:B ratio in animals pre-treated with GF120918 is indicative of a Pgp substrate.
Dose calculations for in vivo efficacy studies.
Property Compound 40 Compound 46 Compound 42
Oral Dose 50mg/kg 50mg/kg 50mg/kg

in vitro = assay type: cell-based, human; conditions: human; read-out: MRC-5 EC50
Mouse brain penetration = assay type: in vivo; conditions: female, NMRI, brain and blood, intravenous, 2 mg free base/kg, read-out: B:B (brain:blood ratio in mouse)

Q: For `Cc1nn(C)c(C)c1NS(=O)(=O)c1c(Cl)cc(-c2ccnc(N3CCNCC3)c2)cc1Cl` [compound 1, 2,6-Dichloro-4-(2-piperazin-1-yl-pyridin-4-yl)-N-(1,3,5-trimethyl-1H-pyrazol-4-yl)-benzenesulfonamide], which “stage 1 HAT minimal curative dose, T. b. brucei S427” value (T. b. brucei S427) is on record?
A: 12.5 mg/kg

Q: And the AUC(0-t) (Mouse pharmacokinetics; 10 mg/kg po, read-out: AUC0–8 (converted))?
A: 6530 ng·h/mL

Q: What about the “stage 1 HAT minimal curative dose, T. b. rhodesiense STIB900” value [1] of the same compound?
A: 50 mg/kg

Q: And the “Cli (mouse)” value ([2]; Table S1, unit not given)?
A: 0.6

Q: And the “Cli (mouse)” value ([2]; mouse liver microsomes)?
A: < 1.0 mL min^–1 g^–1

Q: What about the P-glycoprotein substrate (P-glycoprotein) of the same compound?
A: substrate for P-glycoprotein

Q: What does the source list for `Cc1nn(C)c(C)c1N(C)S(=O)(=O)c1c(Cl)cc(CCCN2CCN(C)CC2)cc1Cl` [compound 33]?
A: Cli (mouse) ([2]; mouse liver microsomes): 7.4 mL min^–1 g^–1; Cli ([2]; mouse microsomes): 7.4 mL/min/g; hepatic extraction of the parent [3]: almost total hepatic extraction; % Parent remaining (t = 15 min) ([4]; 5µM, 15 min at 37°C, mouse liver microsomes): 6%; sulfonamide N-dealkylation on incubation with mouse microsomes ([4]; words): N-dealkylated sulfonamide as the predominant metabolite

Q: Which “stage 1 HAT minimal curative dose, T. b. brucei S427” value (T. b. brucei S427) does the source give for `Cc1nn(C)c(C)c1N(C(F)F)S(=O)(=O)c1c(Cl)cc(CCCCC2CCN(C)CC2)cc1Cl` [compound 46] here?
A: 6 mg/kg

Q: And the Cmax (Mouse pharmacokinetics; oral dose 50mg/kg)?
A: 708 ng/mL

Q: And the “~EC99” value ([5]; T. brucei)?
A: ~2 nM and ~1.1 ng/mL

Q: What about the “minimum curative dose, acute model of T. b. brucei GVR35” value (T. b. brucei GVR35 [6]; b.i.d. po for 4 days) of the same compound?
A: 25 mg/kg

Q: What about the “reduction in efficacy, T. b. brucei GVR35 compared to S427” value (T. b. brucei GVR35 [6]; in vivo) of the same compound?
A: ~4 fold

Q: And the MTD at 1 day [7]?
A: 50 mg/kg

Q: And the “toxicity in infected mice in stage 2 model” value (T. b. brucei GVR35 [8]; dosed at the MTD b.i.d. po for 5 days, mice affected)?
A: 2/5

Q: And the “toxicity in stage 2 model” value (T. b. brucei GVR35 [8]; extended 50 mg/kg dose regimen)?
A: significant toxicity

Q: And the “cures in stage 2 model” value (T. b. brucei GVR35 [8]; extended regimens: 25 mg/kg b.i.d. for 10 days, 50 mg/kg b.i.d. po for 8 days)?
A: no cures

Q: And the “oral dose needed to deliver stage 2 cures (Dose required)” value ([9]; b.i.d., calculated to keep brain free concentration above T. brucei EC99)?
A: 15 mg/kg

Q: And the fraction unbound ([9]; mouse, in vivo)?
A: 0.01

Q: And the Conc in brain ([9]; oral dose 50mg/kg)?
A: 935 ng/g

Q: What about the Free brain conc ([9]; oral dose 50mg/kg) of the same compound?
A: 9.4 ng/g

Q: What does the source list for `Cc1nn(C)c(C)c1NS(=O)(=O)c1ccc(-c2ccnc(N3CCNCC3)c2)cc1` [compound 55]?
A: pEC50 ([5]; Trypanosoma brucei): 8.40; pEC50 (in vitro): 5.85; Kp (Mouse brain penetration): 0.1
